Assay results as given in patent US10435399B2, “HDAC6 inhibitory heterocyclic compound” (TAKEDA PHARMACEUTICAL COMPANY LIMITED, priority 2017, dated 2019).

What follows are molecules tested against T1, HDAC6 enzyme (Homo sapiens, UniProt Q9UBN7) (assay: HDAC6 enzyme inhibitory activity (HDAC-Glo I/II Assay kit)). Settings: 10 μM; wells without enzyme = 100% inhibition.
T1 construct: transducing full length HDAC6 gene into Sf-9 insect cells; GST; purchased SignalChem; host or cells: Sf-9 insect cells
T1 sequence (Q9UBN7 1-1215): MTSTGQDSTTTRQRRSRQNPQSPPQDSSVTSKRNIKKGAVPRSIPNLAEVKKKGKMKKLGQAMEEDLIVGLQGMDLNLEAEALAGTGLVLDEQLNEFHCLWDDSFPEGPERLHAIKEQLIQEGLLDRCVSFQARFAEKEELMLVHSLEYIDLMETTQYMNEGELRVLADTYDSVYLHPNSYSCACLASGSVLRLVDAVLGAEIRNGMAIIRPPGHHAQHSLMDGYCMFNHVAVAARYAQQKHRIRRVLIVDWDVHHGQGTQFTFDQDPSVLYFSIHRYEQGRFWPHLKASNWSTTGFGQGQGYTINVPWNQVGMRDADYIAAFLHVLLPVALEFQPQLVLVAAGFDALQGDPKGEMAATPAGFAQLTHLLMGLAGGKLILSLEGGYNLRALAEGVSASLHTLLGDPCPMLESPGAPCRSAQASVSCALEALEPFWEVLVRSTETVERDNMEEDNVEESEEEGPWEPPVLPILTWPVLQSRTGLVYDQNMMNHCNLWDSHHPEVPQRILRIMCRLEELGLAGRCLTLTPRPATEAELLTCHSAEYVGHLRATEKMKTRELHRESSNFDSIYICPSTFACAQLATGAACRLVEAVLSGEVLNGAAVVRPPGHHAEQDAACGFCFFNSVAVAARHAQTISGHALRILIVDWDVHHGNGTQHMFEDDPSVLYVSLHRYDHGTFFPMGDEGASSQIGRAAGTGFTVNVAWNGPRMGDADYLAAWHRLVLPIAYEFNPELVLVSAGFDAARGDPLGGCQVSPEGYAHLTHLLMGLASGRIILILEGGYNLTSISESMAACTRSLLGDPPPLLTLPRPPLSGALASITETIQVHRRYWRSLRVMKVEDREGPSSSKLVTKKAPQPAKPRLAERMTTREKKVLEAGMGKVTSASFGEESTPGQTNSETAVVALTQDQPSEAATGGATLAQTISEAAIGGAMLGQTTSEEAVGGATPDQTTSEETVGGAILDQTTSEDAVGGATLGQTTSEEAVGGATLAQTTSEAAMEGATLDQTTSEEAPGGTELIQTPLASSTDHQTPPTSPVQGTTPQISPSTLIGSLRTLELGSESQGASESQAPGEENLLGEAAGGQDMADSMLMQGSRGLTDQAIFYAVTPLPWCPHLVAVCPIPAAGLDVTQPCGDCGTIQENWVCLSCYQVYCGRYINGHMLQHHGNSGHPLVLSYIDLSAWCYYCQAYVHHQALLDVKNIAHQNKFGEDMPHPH
Assay type: biochemical
In short: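 Sf-9-derived GST-purified full-length HDAC6 + cpd, 60 min RT, 24 mM Tris pH 7.5/0.6 mM glutathione/0.01% Tween-20; add HDAC-Glo substrate-developer, 20 min RT; luminescence. No-enzyme = 100% inhibition.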

| SMILES | HDAC6 inhibitory rate (%) (10 μM) |
| --- | --- |
| O=C1c2cc(-c3nnc(C(F)F)o3)ccc2CN1N1CCC(F)(F)CC1c1ccc(F)cc1 (stereo not drawn) [Example 572, 2-(4,4-difluoro-2-(4-fluorophenyl)piperidin-1-yl)-6-(5-(difluoromethyl)-1,3,4-oxadiazol-2-yl)isoindolin-1-one (optical isomer)] | 100 |

Same assay, conditions: 10 μM; wells without enzyme = 100% inhibition; read-out: HDAC6 inhibitory rate (%) (10 μM)

| SMILES | inhibition at 10 µM [%] |
| --- | --- |
| O=C1c2cc(-c3nnc(C(F)F)o3)ccc2CN1c1ccc(F)cc1-c1cnn(C(F)F)c1 [Example 385, 6-(5-(difluoro-methyl)-1,3,4-oxadiazol-2-yl)-2-(2-(1-(difluoro-methyl)-1H-pyrazol-4-yl)-4-fluorophenyl) isoindolin-1-one] | 101 |
| O=C(CC1CC1)N[C@@H]1CCCC[C@H]1N1Cc2ccc(-c3nnc(C(F)F)o3)cc2C1=O [Example 63, 2-cyclopropyl-N-((1R,2R)-2-(6-(5-(difluoromethyl)-1,3,4-oxadiazol-2-yl)-1-oxo-1,3-dihydro-2H-isoindol-2-yl)cyclohexyl)acetamide] | 99 |
| COc1ncc(Cl)cc1-c1ccccc1N1Cc2ccc(-c3nnc(C(F)F)o3)cc2C1=O [Example 295, 2-(2-(5-chloro-2-methoxy-pyridin-3-yl)phenyl)-6-(5-(difluoromethyl)-1,3,4-oxadiazol-2-yl)isoindolin-1-one] | 102 |
| N[C@@H]1CCCC(F)(F)[C@H]1N1Cc2ncc(-c3nnc(C(F)F)o3)cc2C1=O [Example 495, 6-((1S,6R)-6-amino-2,2-difluorocyclo-hexyl)-3-(5-(difluoro-methyl)-1,3,4-oxadiazol-2-yl)-6,7-dihydro-5H-pyrrolo [3,4-b] pyridin-5-one] | 89 |
| Cn1cc(-c2cc(F)ccc2N2Cc3ncc(-c4nnc(C(F)F)o4)cc3C2=O)cn1 [Example 411, 3-(5-(difluoro-methyl)-1,3,4-oxadiazol-2-yl)-6-(4-fluoro-2-(1-methyl-1H-pyrazol-4-yl)phenyl)-6,7-dihydro-5H-pyrrolo[3,4-b] pyridin-5-one] | 100 |
| O=C1c2cc(-c3nnc(C(F)F)o3)ccc2CN1C[C@H]1CCCCN1S(=O)(=O)C1CC1 [Example 41, 2-(((2R)-1-(cyclopropylsulfonyl)piperidin-2-yl)methyl)-6-(5-(difluoromethyl)-1,3,4-oxadiazol-2-yl)isoindolin-1-one] | 98 |
| O=C1c2cc(-c3nnc(C(F)F)o3)cc(F)c2CN1C1(CNS(=O)(=O)CC(F)(F)F)CCCCC1 [Example 371, N-((1-(6-(5-(difluoro-methyl)-1,3,4-oxadiazol-2-yl)-4-fluoro-1-oxo-1,3-dihydro-2H-isoindol-2-yl)cyclohexyl)methyl)-2,2,2-trifluoroethane-sulfonamide] | 99 |
| O=C1c2cc(-c3nnc(C(F)F)o3)ccc2CN1c1ccc(OC(F)(F)F)cc1Br [Example 483, 2-(2-bromo-4-(trifluoro-methoxy)phenyl)-6-(5-(difluoro-methyl)-1,3,4-oxadiazol-2-yl) isoindolin-1-one] | 91 |
| O=C(N[C@@H]1CCCC[C@H]1N1Cc2ccc(-c3nnc(C(F)F)o3)cc2C1=O)OCCC(F)(F)F [Example 132, 3,3,3-trifluoropropyl ((1R,2R)-2-(6-(5-(difluoromethyl)-1,3,4-oxadiazol-2-yl)-1-oxo-1,3-dihydro-2H-isoindol-2-yl)cyclohexyl)carbamate] | 94 |
| Cn1cc(-c2ccccc2N2Cc3ccc(-c4nnc(C(F)F)o4)cc3C2=O)cn1 [Example 207, 6-(5-(difluoromethyl)-1,3,4-oxadiazol-2-yl)-2-(2-(1-methyl-1H-pyrazol-4-yl)phenyl)isoindolin-1-one] | 100 |
| Cn1nc(C(F)(F)F)cc1-c1c(F)cccc1N1Cc2ccc(-c3nnc(C(F)F)o3)cc2C1=O [Example 431, 6-(5-(difluoro-methyl)-1,3,4-oxadiazol-2-yl)-2-(3-fluoro-2-(1-methyl-3-(trifluoro-methyl)-1H-pyrazol-5-yl)phenyl)iso-indolin-1-one] | 100 |
| COc1ccc(N2Cc3ccc(-c4nnc(C(F)F)o4)cc3C2=O)c(-c2ccccc2)c1 [Example 484, 6-(5-(difluoro-methyl)-1,3,4-oxadiazol-2-yl)-2-(5-methoxy-biphenyl-2-yl) isoindolin-1-one] | 100 |
| O=C1c2cc(-c3nnc(C(F)F)o3)ccc2CN1N1CCCC1c1ccccc1 (stereo not drawn) [Example 491, 6-(5-(difluoro-methyl)-1,3,4-oxadiazol-2-yl)-2-(2-phenyl-pyrrolidin-1-yl) isoindolin-1-one] | 99 |
| CC(C)(C)OC(=O)N1CCC(c2cc(F)ccc2N2Cc3ccc(-c4nnc(C(F)F)o4)cc3C2=O)CC1 [Example 524, tert-butyl 4-(2-(6-(5-(difluoromethyl)-1,3,4-oxadiazol-2-yl)-1-oxo-1,3-dihydro-2H-isoindol-2-yl)-5-flluorophenyl)piperidine-1-carboxylate] | 99 |
| N[C@@H]1CCC(F)(F)C[C@H]1N1Cc2ncc(-c3nnc(C(F)F)o3)cc2C1=O [Example 638, 6-((1R,2R)-2-amino-5,5-difluorocyclohexyl)-3-(5-(difluoromethyl)-1,3,4-oxadiazol-2-yl)-6,7-dihydro-5H-pyrrollo[3,4-b]pyridin-5-one] | 93 |
| O=C1c2cc(-c3nnc(C(F)F)o3)ccc2CN1N1CCC(F)(F)CC1c1ccccc1 (stereo not drawn) [Example 530, 6-(5-(difluoromethyl)-1,3,4-oxadiazol-2-yl)-2-(4,4-difluoro-2-phenylpiperidin-1-yl)isoindolin-1-one] | 100 |
| O=C1c2cc(-c3nnc(C(F)F)o3)ccc2CN1[C@@H]1CCCC(F)(F)[C@H]1NC(=O)C(F)(F)C(F)F [Example 581, N-((1S,6R)-6-(6-(5-(difluoromethyl)-1,3,4-oxadiazol-2-yl)-1-oxo-1,3-dihydro-2H-isoindol-2-yl)-2,2-difluorocyclohexyl)-2,2,3,3-tetrafluoropropanamide] | 99 |
| O=C1c2cc(-c3nnc(C(F)F)o3)ccc2CN1[C@@H]1CCCC[C@H]1n1nnc2ccccc21 [Example 536, 2-((1R,2R)-2-(1H-benzotriazol-1-yl)cyclohexyl)-6-(5-(difluoromethyl)-1,3,4-oxadiazol-2-yl)isoindolin-1-one] | 100 |
| Cn1cc(CN2Cc3ncc(-c4nnc(C(F)F)o4)cc3C2=O)cn1 [Example 423, 3-(5-(difluoro-methyl)-1,3,4-oxadiazol-2-yl)-6-((1-methyl-1H-pyrazol-4-yl)methyl)-6,7-dihydro-5H-pyrrolo[3,4-b] pyridin-5-one] | 99 |
| O=C1c2cc(-c3nnc(C(F)F)o3)cnc2CN1Cc1cncc(C(F)(F)F)c1 [Example 425, 3-(5-(difluoro-methyl)-1,3,4-oxadiazol-2-yl)-6-((5-(trifluoro-methyl)pyridin-3-yl)methyl)-6,7-dihydro-5H-pyrrolo [3,4-b] pyridin-5-one] | 99 |
| O=C1c2cc(-c3nnc(C(F)F)o3)cc(F)c2CN1C[C@H]1CCCN1S(=O)(=O)c1cccc(F)c1 [Example 427, 6-(5-(difluoro-methyl)-1,3,4-oxadiazol-2-yl)-4-fluoro-2-(((2R)-1-((3-fluorophenyl)sulfonyl)pyrrolidin-2-yl)methyl) isoindolin-1-one] | 100 |
| N#Cc1cccc(-c2ccc(Cl)cc2N2Cc3ccc(-c4nnc(C(F)F)o4)cc3C2=O)c1 [Example 267, 4′-chloro-2′-(6-(5-(difluoro-methyl)-1,3,4-oxadiazol-2-yl)-1-oxo-1,3-dihydro-2H-isoindol-2-yl)biphenyl-3-carbonitrile] | 100 |
| N#C[C@@H]1CCCC[C@H]1N1Cc2ccc(-c3nnc(C(F)F)o3)cc2C1=O (racemic) [Example 556, (1RS,2RS)-2-(6-(5-(difluoromethyl)-1,3,4-oxadiazol-2-yl)-1-oxo-1,3-dihydro-2H-isoindol-2-yl)cyclohexanecarbonitrile] | 97 |
